Test system: Rhesusaffen
Experiment: In vivo test in furosemide-pretreated, anaesthetised rhesus monkeys: blood pressure, heart rate, plasma renin activity
Details: 2 mg/kg i.d. (in 0,1 n Zitronensäure 2 mg/ml); for Änderung PRA [%]: Plasma-Renin-Aktivität
Source text: Renin-Hemmer bewirken an salzverarmten Tieren eine Blutdrucksenkung. Da sich menschliches Renin von dem Renin anderer Spezies unterscheidet, werden zum in-vivo-Test von Renin-Hemmern Primaten, wie zum Beispiel Rhesus-Affen, herangezogen.
Primaten-Renin und Human-Renin sind in ihrer Sequenz weitgehend homolog. Durch i.v. Injektion von Furosemid wird eine endogene Renin-Ausschüttung angeregt. Anschließend werden die Testverbindungen verabreicht und ihre Wirkung auf Blutdruck und Herzfrequenz wird gemessen.
6 Rhesusaffen wurden an 6 aufeinanderfolgenden Tagen mit 10 mg/kg·d Furosemid oral vorbehandelt. Am 7. Tag wurden etwa 30 Minuten vor Versuchsbeginn weitere 10 mg/kg Furosemid i.v. verabreicht. Anschließend wurde die Anästhesie mit 20 mg/kg Ketamin i.m. eingeleitet und mit 40 mg/kg Pentobarbiton i.v. fortgesetzt. Ein Seitenarm der Femoralarterie wurde freipräpariert und zur Blutdruckmessung mittels eines Blutdruck-Wandlers (P 23 ID) kanuliert. Blutproben zur Bestimmung der Plasma-Renin-Aktivität wurden über eine Braunüle in der Saphena-Vene abgenommen.
Die Titelverbindung des Beispiels 2 zeigt folgendes Ergebnis: 2 mg/kg i.d. (in 0,1 n Zitronensäure 2 mg/ml)

Q: Which results are given for CC(C)(C)S(=O)(=O)CC(Cc1ccccc1)C(=O)NC(Cc1c[nH]cn1)C(=O)NC(CC1CCCCC1)C(O)C(O)C(O)C(O)CO [Beispiel 2, (2(S)-Benzyl,3-t-butylsulfonyl)propionyl-His-[(D)-Manno-Pentol]]?
A: Blutdruck-Änderung [%] (t 1 min): -0,72%; Puls-Änderung [%] (t 1 min): -1,16%; Blutdruck-Änderung [%] (t 3 min): -8,21%; Puls-Änderung [%] (t 3 min): -1,61%; Blutdruck-Änderung [%] (t 5 min): -11,53%; Puls-Änderung [%] (t 5 min): -2,42%; Blutdruck-Änderung [%] (t 10 min): -11,82%; Puls-Änderung [%] (t 10 min): -2,51%; Blutdruck-Änderung [%] (t 15 min): -12,68%; Puls-Änderung [%] (t 15 min): -3,49%; Blutdruck-Änderung [%] (t 20 min): -13,48%; Puls-Änderung [%] (t 20 min): -1,97%; Blutdruck-Änderung [%] (t 30 min): -16,43%; Puls-Änderung [%] (t 30 min): -1,61%; Blutdruck-Änderung [%] (t 45 min): -12,82%; Puls-Änderung [%] (t 45 min): +0,09%; Blutdruck-Änderung [%] (t 60 min): -13,98%; Puls-Änderung [%] (t 60 min): -0,09%; Puls-Änderung [%] (t 75 min): +1,16%; Puls-Änderung [%] (t 90 min): +3,04%; Änderung PRA [%] (t 15 min): -20%; Änderung PRA [%] (t 30 min): -62%; Änderung PRA [%] (t 45 min): -53%; Änderung PRA [%] (t 60 min): -58%; Änderung PRA [%] (t 90 min): -51%; Änderung PRA [%] (t 120 min): -47%
